Source: PMC6130518, “Investigation of the effective components of the flowers of Trollius chinensis from the perspectives of intestinal bacterial transformation and intestinal absorption” (Pharmaceutical Biology, 2017)
“Also recorded” adds a separate entry of the source.

Legend:
[1] = previous study, ref Liu et al. [2015]; cited from earlier work
[2] = Transport experiment with Caco-2 cell monolayers; conditions: human; for Papp at 180 min, 10 mg/mL / Papp at 180 min, 20 mg/mL / Papp at 180 min, 30 mg/mL: Caco-2, Papp, Caco-2 cell monolayers; for Papp at 180 min, 10 mg/mL: extract 10 mg/mL; for Papp at 180 min, 20 mg/mL: extract 20 mg/mL; for Papp at 180 min, 30 mg/mL: extract 30 mg/mL
Protocol: (§1) The Caco-2 cells were cultured in the culture medium consisting of Dulbecco’s Modified Eagle Medium (DMEM, Gibco Inc., Grand Island, CA)-fetal bovine serum (FBS, Gibco Inc., Grand Island, CA)-nonessential amino acids (NEAA, Corning Costar, Cambridge, MA)-‘penicillin-streptomycin’ (Corning Costar, Cambridge, MA) (100:10:1:1, v/v/v/v) in 25 cm^2 flasks, which were incubated in 5% CO2 and constant temperature (37 °C) and humidity in the incubator. The culture medium was replaced every 2 or 3 days, and the cells were split 1:2 or 1:3 to conduct passage when they reached 80% confluence.
(§2) About 1.5 mL of the culture medium was added into the basal (BL) side of each well of the 12-well Transwell plates (insert diameter 12 mm, pore size 3.0 μm, membrane growth area 1.12 cm^2, Corning Costar, Cambridge, MA), and 0.5 mL of the Caco-2 cell suspension at the density of 2.0 × 10^5 cells/mL was seeded into the apical (AP) side of each insert. The cells were incubated in 5% CO2 and constant temperature (37 °C) and humidity in the incubator. The culture medium in both AP and BL sides was replaced every other day in the first week, then that in AP side was replaced every day and that in BL side was replaced every other day. The cells would differentiate and form a confluent monolayer. The integrity and viability of the cell monolayers were evaluated by measuring transepithelial electrical resistance (TEER) values in the culture medium at 37 °C using a Millicell®-ERS system (Millipore Corp., Bedford, MA), and only the inserts with the TEER above 600 Ω/cm^2 on day 21 were selected to perform the transport experiment.
(§3) About 200 μL of the solution in the receiving chambers was collected at 30, 60, 90, 120, 150, and 180 min, respectively, and then the same volume of HBSS was added. All samples were stored at −20 °C and filtered through a 0.45 μm membrane filter for HPLC analysis.
(§4) The HPLC conditions used for the analysis of the intestinal bacterial transformed AEOF before and after transport experiment was the same as above.
(§5) The transport percentage (%) was calculated using the formula transport percentage (%) = dQ/(C0 × V) × 100, wherein, V (mL) represented the volume of the donor compartment.

Caco-2 cell monolayers = assay: Transport experiment with Caco-2 cell monolayers; conditions: for transport percentage: Caco-2 cell monolayers; for After transported with Caco-2 cell monolayers: intestinal bacterial transformed AEOF
Protocol: as §1, §2, §3, §4, §5

[3] = test system: activated intestinal bacteria; assay: Intestinal bacterial transformation of AEOF; type: in vitro ADME, human; conditions: for After transformed by intestinal bacteria / Before transformed by intestinal bacteria: content in the extract; for transformation by intestinal bacteria (in words): in AEOF 15.0, 30.0, 60.0 mg/mL, up to 72 h, single person derived- or multiple people-derived intestinal bacteria; for time in which completely transformed by intestinal bacteria: in AEOF, isoquercetin to quercetin, trollioside to proglobeflowery acid
Protocol: Each 3 g of fresh feces from 3 healthy men and 3 healthy women of 23–25 years old was suspended in 200 mL of general anaerobic medium (GAM, including L-cystine hydrochloride, soluble starch, pepsin, tryptone, peptone, soy peptone, serum powder, yeast extract, beef extract, and beef liver extract powder purchased from Beijing Aoboxing Biotechnology Co., Ltd, Beijing, China) broth prepared as per a literature (Yang & Xu [2011]), respectively, and cultured in an anaerobic incubator (Shanghai Cimomedical Appliance Co., Ltd., Shanghai, China) at 37 °C for 24 h (Tsuchihashi et al. [2009]). […] Each 100 μL of the activated intestinal bacteria from the 6 volunteers were added into 11.4 mL of GAM, mixed adequately, and incubated in the same conditions as previously to obtain the mixture of activated intestinal bacteria. About 0.4513, 0.9026, and 1.8052 g of AEOF were dissolved in 30 mL of GAM on a super clean bench (Beijing Great Wall Air Purification Co. Ltd., Beijing, China), respectively, to generate the experimental groups. Then, the triplicate GAM containing AEOF was divided into 24 screw-cap test tubes, and each screw-cap test tube had 3 mL of the GAM and 100 μL of the activated intestinal bacteria and the mixture of activated intestinal bacteria, respectively. They were incubated under the same condition, and the test tubes of each concentration in triplicate were removed from the anaerobic incubator at 0, 2, 4, 6, 12, 24, 48, and 72 h. About 100 μL of the bacterial suspension was replaced with GAM to obtain the control group. The GAM absent of the AEOF was used as the blank group. […] About 300 μL of the supernatant was collected, filtered through a 0.45 μm membrane filter, and stored at −20 °C before HPLC analysis.
The HPLC analysis was performed using a Waters 1500 series (Waters Business Operations, Milford, MA) equipped with a 1525 binary HPLC pump, an on-line degasser, a manual injector and a 2489 UV/Visible detector. […] The temperature was set at 35 °C and the UV detecting wavelengths were 254 and 365 nm. The mobile phase consisted of acetonitrile (HPLC grade, Fisher Co., Pittsburgh, PA) (A) and 1.0% acetic acid (Beijing Chemical Works, Beijing, China) in purified water (v/v) (B), and the gradient elution program was as follows: 5–10% A (0–5 min), 10–20% A (5–10 min), 20–25% A (10–22 min), 25–40% A (22–35 min), 40–50% A (35–40 min), and 50–5% A (40–42 min) at a flow rate of 1.0 mL/min. The volume injected was 5 μL.

[4] = Absorption experiment with everted gut sacs; conditions: Sprague-Dawley, rat
[5] = test system: everted gut sacs (jejunum); assay: Absorption experiment with everted gut sacs; conditions: for transport percentage: Everted gut sacs, AP→BL; for After transported with everted gut sacs: intestinal bacterial transformed AEOF
[6] = first of three lines per compound (lowest concentration; 10, 20, 30 mg/mL)
[7] = second of three lines per compound (middle concentration, not given)
[8] = third of three lines per compound (highest concentration, not given)
[9] = first of three lines per compound (lowest extract concentration)
[10] = first of three lines per compound (lowest extract concentration; AEOF 15, 30, 60 mg/mL)
[11] = second of three lines per compound (middle extract concentration, not given)
[12] = third of three lines per compound (highest extract concentration, not given)

| Compound | absorption mechanism [1] | Papp at 180 min, 10 mg/mL ([2]; AP→BL) [nm/s] | Papp at 180 min, 10 mg/mL ([2]; BL→AP) [nm/s] | Papp at 180 min, 20 mg/mL ([2]; AP→BL) [nm/s] | Papp at 180 min, 20 mg/mL ([2]; BL→AP) [nm/s] | Papp at 180 min, 30 mg/mL ([2]; AP→BL) [nm/s] | Papp at 180 min, 30 mg/mL ([2]; BL→AP) [nm/s] | After transported with Caco-2 cell monolayers (Caco-2 cell monolayers; [6]) [µg/mL] | After transported with Caco-2 cell monolayers (Caco-2 cell monolayers; [7]) [µg/mL] | After transported with Caco-2 cell monolayers (Caco-2 cell monolayers; [8]) [µg/mL] | After transformed by intestinal bacteria [3, 9] [µg/mL] | Before transformed by intestinal bacteria [3, 10] [µg/mL] | After transformed by intestinal bacteria [3, 11] [µg/mL] | Before transformed by intestinal bacteria [3, 11] [µg/mL] | After transformed by intestinal bacteria [3, 12] [µg/mL] | Before transformed by intestinal bacteria [3, 12] [µg/mL] | transformation by intestinal bacteria (in words) [3] | After transported with everted gut sacs [5, 6] [µg/mL] | After transported with everted gut sacs [5, 7] [µg/mL] | After transported with everted gut sacs [5, 8] [µg/mL] | also measured |
| --- | --- | --- | --- | --- | --- | --- | --- | --- | --- | --- | --- | --- | --- | --- | --- | --- | --- | --- | --- | --- | --- |
| O=c1cc(-c2ccc(O)c(O)c2)oc2c(C3OC(CO)C(O)C(O)C3OC3OC(CO)C(O)C(O)C3O)c(O)cc(O)c12 [2″-O-β-L-galactopyranosylorientin] | transporter mediated efflux in addition to passive diffusion | 111 ± 9 | 216 ± 24 | 190 ± 9 | 349 ± 9 | 407 ± 40 | 417 ± 28 | 0.41 | 1.44 | 4.78 | 28.06 | 26.86 | 56.34 | 56.18 | 100.57 | 104.39 | not changed | 1.57 | 1.69 | 5.38 | transport percentage (Caco-2 cell monolayers; extract 10 mg/mL, AP→BL): 13.41%; transport percentage (Caco-2 cell monolayers; extract 10 mg/mL, BL→AP): 8.72%; transport percentage (Caco-2 cell monolayers; extract 20 mg/mL, AP→BL): 22.93%; transport percentage (Caco-2 cell monolayers; extract 20 mg/mL, BL→AP): 14.08%; transport percentage (Caco-2 cell monolayers; extract 30 mg/mL, AP→BL): 49.29%; transport percentage (Caco-2 cell monolayers; extract 30 mg/mL, BL→AP): 16.83%; transformation by intestinal bacteria (in words) ([3]; listed as 2″-O-β-L-Galactopyranosylorientin): not transformed; Papp at 180 min, 10 mg/mL [4]: 411 ± 25 nm/s; Papp at 180 min, 20 mg/mL [4]: 223 ± 41 nm/s; Papp at 180 min, 30 mg/mL [4]: 467 ± 25 nm/s; transport percentage ([5]; extract 10 mg/mL): 8.76%; transport percentage ([5]; extract 20 mg/mL): 4.23%; transport percentage ([5]; extract 30 mg/mL): 9.25% |
| O=c1c(O[C@@H]2O[C@H](CO)[C@@H](O)[C@H](O)[C@H]2O)c(-c2ccc(O)c(O)c2)oc2cc(O)cc(O)c12 [isoquercetin] |  |  |  |  |  |  |  | 0.00 | 0.00 | 0.00 | 0.00 | 0.37 | 0.00 | 0.56 | 0.00 | 1.38 | completely transformed | 0.00 | 0.00 | 0.00 | time in which completely transformed by intestinal bacteria [3]: ≤ 24 h |
| O=c1cc(-c2ccc(O)c(O)c2)oc2c([C@@H]3O[C@H](CO)[C@@H](O)[C@H](O)[C@H]3O)c(O)cc(O)c12 [orientin] | transporter mediated efflux in addition to passive diffusion | 253 ± 3 | 192 ± 14 | 135 ± 2 | 118 ± 2 | 195 ± 14 | 163 ± 6 | 0.33 | 0.35 | 0.82 | 11.83 | 10.27 | 20.38 | 20.33 | 43.42 | 43.87 | not transformed; also recorded: not changed | 0.32 | 0.49 | 1.04 | transport percentage (Caco-2 cell monolayers; extract 10 mg/mL, AP→BL): 30.53%; transport percentage (Caco-2 cell monolayers; extract 10 mg/mL, BL→AP): 7.73%; transport percentage (Caco-2 cell monolayers; extract 20 mg/mL, AP→BL): 16.39%; transport percentage (Caco-2 cell monolayers; extract 20 mg/mL, BL→AP): 4.76%; transport percentage (Caco-2 cell monolayers; extract 30 mg/mL, AP→BL): 23.54%; transport percentage (Caco-2 cell monolayers; extract 30 mg/mL, BL→AP): 6.56%; Papp at 180 min, 10 mg/mL [4]: 219 ± 24 nm/s; Papp at 180 min, 20 mg/mL [4]: 185 ± 1 nm/s; Papp at 180 min, 30 mg/mL [4]: 340 ± 34 nm/s; transport percentage ([5]; extract 10 mg/mL): 4.67%; transport percentage ([5]; extract 20 mg/mL): 3.50%; transport percentage ([5]; extract 30 mg/mL): 6.75% |
| CC(C)NCC(O)COc1cccc2ccccc12 (centres unmarked) [propranolol, reference compound] |  |  |  |  |  |  |  |  |  |  |  |  |  |  |  |  |  |  |  |  | Papp at 180 min ([2]; Caco-2, apparent permeability coefficient (Papp), reference compounds, validation of Caco-2 monolayers): 412 nm/s |
| O=c1c(O)c(-c2ccc(O)c(O)c2)oc2cc(O)cc(O)c12 [quercetin] |  |  |  |  |  |  |  | 0.00 | 0.00 | 0.00 | 2.12 | 1.56 | 4.02 | 3.25 | 8.45 | 7.38 | not transformed | 0.00 | 0.00 | 0.00 |  |
| COc1cc(C(=O)O)cc(CC=C(C)C)c1OC1OC(CO)C(O)C(O)C1O (centres unmarked) [trollioside] |  |  |  |  |  |  |  | 0.00 | 0.00 | 0.00 | 0.00 | 5.62 | 0.00 | 12.76 | 0.00 | 26.84 | completely transformed | 0.00 | 0.00 | 0.00 | time in which completely transformed by intestinal bacteria [3]: ≤ 24 h |
